Read-outs that look alike come from different tables or passages of the source.
Experiments:
H3K36me3 in A549 cells = assay: In-Cell Western (ICW) assay of SETD2 inhibitors (A549 assay); assay type: cell-based, human
Description: In-Cell Western (ICW) Assay of SETD2 Inhibitors (A549 Assay)
Representative Compounds of the Disclosure were tested in the A549 assay according the following protocol.
1. Reagents and Consumables:
Prepare plates with compounds. Seed A549 cells to the plates with compounds, 4,000 cells/well, 50 μl/well. Put the plates at room temperature on a non-vibrating surface for 20 minutes before placing in the incubator. Incubate the plate at 37° C. incubator with CO2 for 3 days. Remove plate from incubator and bring to room temperature. Blot media out of the plate and add 50 μL of ice cold 100% methanol. Incubate 30 minutes at room temperature. Remove methanol by aspiration. Wash 3× with PBST. Add 50 μL of Blocking Buffer+0.1% Tween 20. Incubate 1 hour. Remove Blocking Buffer, wash 3× with PBST. Add 20 μL of H3K36me3 (1:1000 dilution). […] Incubate overnight at 4° C. Wash plate 5× with PBS-T. Add 20 μL of DRAQ5 (1:1000) and IRDye 800CW Goat anti-Rabbit IgG (1:500). Incubate for 1 hour in the dark. Wash plate 5× with PBS-T. Wash plate 3× with water. Dry by blotting on paper towel, then centrifuge plate upside down on a thin layer of paper towels for 1 minute at 1000 rpm to remove excess reagent. Leave plate uncovered for ˜10 minutes out of direct light before reading. Read on Licor instrument.
4. Licor Instrument Settings:
Preset: Plate; Resolution: 84 μm; Quality: low; Focus offset: 4.0; 700 channel intensity: 2; and 800 channel intensity: 3.

SETD2(1434-1711) = target: T1, SETD2(1434-1711) (Homo sapiens, UniProt Q9BYW2); assay: SETD2 (1434-1711) assay; assay type: biochemical; conditions: read-out: SETD2 (1434-1711)
T1 construct: SETD2 (1434-1711) Assay; catalogue N/A
T1 sequence (Q9BYW2 1434-1711): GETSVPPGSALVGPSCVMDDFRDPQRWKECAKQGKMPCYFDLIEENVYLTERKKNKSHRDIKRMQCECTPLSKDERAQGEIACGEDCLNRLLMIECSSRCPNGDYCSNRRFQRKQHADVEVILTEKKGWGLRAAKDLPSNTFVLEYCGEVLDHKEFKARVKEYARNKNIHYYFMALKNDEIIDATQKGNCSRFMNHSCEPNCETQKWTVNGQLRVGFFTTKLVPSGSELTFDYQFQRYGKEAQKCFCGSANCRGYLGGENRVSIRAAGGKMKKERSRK

[1] = Homo sapiens, A549, read-out: SETD2 A549
[2] = A549 cells, read-out: SETD2 A549

IC50 (SETD2(1434-1711))	SMILES	other results
	Cc1ccc(F)c2cc(C(=O)N[C@@H]3CCC[C@H](N4CCN(C)C(=O)C4)C3)[nH]c12 [compound 169]	IC50 (H3K36me3 in A549 cells; [1]): 0.3 µM
	Cc1ccc(F)c2cc(C(=O)NC3CCCC(N4CCOCC4)C3)[nH]c12 (stereo not drawn) [compound 374]	IC50 (H3K36me3 in A549 cells; [2]): > 2 µM
	Cc1ccc(F)c2cc(C(=O)NC3CCCC(N4CCOCC4)C3)[nH]c12 (stereo not drawn) [compound 381]	IC50 (H3K36me3 in A549 cells; [2]): > 2 µM
	Cc1ccc(F)c2cc(C(=O)NC3CCCC(N4CCN(C)C(=O)C4)C3)[nH]c12 (stereo not drawn) [compound 382]	IC50 (H3K36me3 in A549 cells; [2]): > 2 µM
	CC(=O)N(C)C1CCN([C@@H]2CCC[C@@H](NC(=O)c3cc4c(F)ccc(C)c4[nH]3)C2)C1 (stereo partly drawn) [compound 385]	IC50 (H3K36me3 in A549 cells; [1]): > 2 µM
> 200 µM	Cc1cc(C)c2[nH]c(C(=O)N[C@H]3CC[C@H](N)CC3)cc2c1 [compound 756]	
> 200 µM	Cc1cccc2cc(C(=O)N3CCN(c4ncccc4C(N)=O)CC3)[nH]c12 [compound 757]	
> 200 µM	Cc1cccc2cc(C(=O)NCc3ccc(S(=O)(=O)N4CCCCC4)cc3)[nH]c12 [compound 758]	
> 200 µM	Cc1cccc2cc(C(=O)N[C@H]3C[C@@H](CO)C3)[nH]c12 [compound 759]	
> 200 µM	Cc1cccc2cc(C(=O)N(C)[C@H]3CC[C@H](N)CC3)[nH]c12 [compound 761]	
> 200 µM	Cc1cccc2cc(C(=O)N[C@H](CO)C(C)C)[nH]c12 [compound 763]	
> 200 µM	COC(=O)CC(NC(=O)c1cc2cccc(C)c2[nH]1)c1ccc(Cl)cc1 (stereo not drawn) [compound 764]	
> 200 µM	Cc1cccc2cc(C(=O)N[C@H](CO)Cc3ccccc3)[nH]c12 [compound 765]	
> 200 µM	Cc1cccc2cc(C(=O)NC(C)CNC(=O)OC(C)(C)C)[nH]c12 (stereo not drawn) [compound 766]	
> 200 µM	Cc1cccc2cc(C(=O)NCc3ccccc3OCC3CC3)[nH]c12 [compound 767]	
> 200 µM	Cc1cccc2cc(C(=O)NCc3ncnn3C)[nH]c12 [compound 768]	
> 200 µM	Cc1cccc2cc(C(=O)NC(C3CC3)C(F)(F)F)[nH]c12 (stereo not drawn) [compound 769]	
> 200 µM	Cc1cccc2cc(C(=O)N3CCC(C(N)=O)CC3)[nH]c12 [compound 771]	
> 200 µM	COC(=O)CC(NC(=O)c1cc2cccc(C)c2[nH]1)c1ccc(C(C)C)cc1 (stereo not drawn) [compound 773]	
> 200 µM	COC(=O)CC(NC(=O)c1cc2cccc(C)c2[nH]1)c1ccccc1Br (stereo not drawn) [compound 774]	
> 200 µM	COC(=O)CC(NC(=O)c1cc2cccc(C)c2[nH]1)c1ccccc1 (stereo not drawn) [compound 775]	
> 200 µM	COC(=O)CC(NC(=O)c1cc2cccc(C)c2[nH]1)c1ccc(F)cc1 (stereo not drawn) [compound 776]	
> 200 µM	COC(=O)CC(NC(=O)c1cc2cccc(C)c2[nH]1)c1ccc(OC)cc1 (stereo not drawn) [compound 777]	
> 200 µM	COC(=O)CC(NC(=O)c1cc2cccc(C)c2[nH]1)c1ccc(Br)cc1 (stereo not drawn) [compound 778]	

IC50 (SETD2(1434-1711))	SMILES	other results
> 200 µM	Cc1cccc2cc(C(=O)NCc3nc4ccccc4o3)[nH]c12 [compound 779]	
> 200 µM	Cc1cccc2cc(C(=O)N[C@H]3CC[C@H](C(F)(F)F)CC3)[nH]c12 [compound 780]	
> 200 µM	Cc1cccc2cc(C(=O)N3CCN(CC(N)=O)CC3)[nH]c12 [compound 781]	
> 200 µM	Cc1nc(CCNC(=O)c2cc3cccc(C)c3[nH]2)no1 [compound 782]	
> 200 µM	COC(=O)CC(NC(=O)c1cc2cccc(C)c2[nH]1)c1ccc(C)cc1 (stereo not drawn) [compound 783]	
> 200 µM	Cc1cccc2cc(C(=O)NCC(O)C(F)F)[nH]c12 (stereo not drawn) [compound 784]	
> 200 µM	Cc1nc(C(C)NC(=O)c2cc3cccc(C)c3[nH]2)no1 (stereo not drawn) [compound 785]	
> 200 µM	Cc1cccc2cc(C(=O)N3CCCC3C(N)=O)[nH]c12 (stereo not drawn) [compound 786]	
> 200 µM	Cc1cccc2cc(C(=O)N3CCN(C(N)=O)CC3)[nH]c12 [compound 787]	
> 200 µM	Cc1cccc2cc(C(=O)NC(C)c3ccccc3C(F)(F)F)[nH]c12 (stereo not drawn) [compound 788]	
> 200 µM	Cc1cccc2cc(C(=O)NC(C)c3cccc(C(F)(F)F)c3)[nH]c12 (stereo not drawn) [compound 790]	
> 200 µM	Cc1cccc2cc(C(=O)N[C@H]3CC[C@H](NC(=O)C(F)(F)F)CC3)[nH]c12 [compound 791]	
> 200 µM	Cc1cccc2cc(C(=O)N3CCCC(N)C3)[nH]c12 (stereo not drawn) [compound 794]	
> 200 µM	Cc1cccc2cc(C(=O)Nc3cccnc3)[nH]c12 [compound 795]	
> 200 µM	Cc1cccc2cc(C(=O)Nc3cn4ccccc4n3)[nH]c12 [compound 796]	
> 200 µM	CCOC(=O)[C@@H]1CCCC[C@H]1NC(=O)c1cc2cccc(C)c2[nH]1 [compound 797]	
> 200 µM	Cc1cccc2cc(C(=O)N3CCCC(NC(=O)CCN)C3)[nH]c12 (stereo not drawn) [compound 798]	
> 200 µM	Cc1cccc2cc(C(=O)N3CCCC(N(C)C)C3)[nH]c12 (stereo not drawn) [compound 799]	
> 200 µM	CNC1CCCN(C(=O)c2cc3cccc(C)c3[nH]2)C1 (stereo not drawn) [compound 800]	
> 200 µM	Cc1ccccc1C(NC(=O)c1cc2cccc(C)c2[nH]1)C1CC1 (stereo not drawn) [compound 801]	
> 200 µM	Cc1cccnc1C(NC(=O)c1cc2cccc(C(C)C)c2[nH]1)C1CC1 (stereo not drawn) [compound 802]	
> 200 µM	CCc1cccc2cc(C(=O)NC(c3ccccn3)C3CC3)[nH]c12 (stereo not drawn) [compound 803]	
> 200 µM	Cc1cccc2cc(C(=O)Nc3ncc4ccccc4n3)[nH]c12 [compound 804]	
> 200 µM	CNC(=O)CC(NC(=O)c1cc2cccc(C)c2[nH]1)c1cccnc1 (stereo not drawn) [compound 809]	

IC50 (SETD2(1434-1711))	SMILES	other results
> 200 µM	Cc1cccc2cc(C(=O)N3CCn4cncc4C3)[nH]c12 [compound 810]	
> 200 µM	Cc1cccc2cc(C(=O)N3CCn4cnnc4C3)[nH]c12 [compound 811]	
> 200 µM	Cc1cccc2cc(C(=O)N3CCn4ncnc4C3)[nH]c12 [compound 812]	
> 200 µM	Cc1cccc2cc(C(=O)N3CCC(=O)c4ccccc4C3)[nH]c12 [compound 814]	
> 200 µM	Cc1cccc2cc(C(=O)NCC(CN(C)C)c3ccccc3)[nH]c12 (stereo not drawn) [compound 815]	
> 200 µM	Cc1cccc2cc(C(=O)NC3CCC(c4ccccc4)NC(=O)C3)[nH]c12 (stereo not drawn) [compound 816]	
> 200 µM	Cc1cccc2cc(C(=O)NC(c3ncccc3Cc3ccccc3)C3CC3)[nH]c12 (stereo not drawn) [compound 817]	
> 200 µM	Cc1cccc2cc(C(=O)NCCc3ccccc3-c3ccccc3)[nH]c12 [compound 818]	
> 200 µM	Cc1cccc2cc(C(=O)N3CCC4(CCc5ccccc54)C3)[nH]c12 (stereo not drawn) [compound 820]	
> 200 µM	Cc1cccnc1C(NC(=O)c1cc2cccc(CC3CCC3)c2[nH]1)C1CC1 (stereo not drawn) [compound 821]	
8.3 µM	Cc1ccc(F)c2cc(C(=O)N[C@@H]3CCC[C@@H](N4CCCNC(=O)C4)C3)[nH]c12 [compound 822]	
1.2 µM	CCOC(=O)N1CCN([C@@H]2CCC[C@@H](NC(=O)c3cc4c(F)ccc(C)c4[nH]3)C2)CC1 [compound 825]	
7.6 µM	Cc1ccc(F)c2cc(C(=O)N[C@@H]3CCC[C@@H](N4CCN(CC(F)(F)F)CC4)C3)[nH]c12 [compound 827]	
1.5 µM	Cc1ccc(F)c2cc(C(=O)N[C@@H]3CCC[C@@H](N4CCN(C(=O)N5CCOCC5)CC4)C3)[nH]c12 [compound 829]	
0.04 µM	Cc1ccc(F)c2cc(C(=O)N[C@@H]3CCC[C@H](N4CCN(C(=O)C5CC5)CC4)C3)[nH]c12 [compound 830]	
2.3 µM	Cc1ccc(F)c2cc(C(=O)N[C@@H]3CCC[C@@H](N4CCN(C(=O)C5CC5)CC4)C3)[nH]c12 [compound 831]	
0.6 µM	Cc1ccc(F)c2cc(C(=O)N[C@@H]3CCCC(N4CCC(=O)N(C)CC4)C3)[nH]c12 (stereo partly drawn) [compound 832]	
5 µM	CC(=O)NC1CCN([C@@H]2CCC[C@@H](NC(=O)c3cc4c(F)ccc(C)c4[nH]3)C2)C1 (stereo partly drawn) [compound 834]	
0.1 µM	CCN1CCN(C2CCCC(NC(=O)c3cc4c(F)ccc(C)c4[nH]3)C2)CC1=O (stereo not drawn) [compound 835]	
4 µM	CCN1CCN([C@@H]2CCC[C@@H](NC(=O)c3cc4c(F)ccc(C)c4[nH]3)C2)CC1=O [compound 836]	
9.7 µM	Cc1ccc(F)c2cc(C(=O)N[C@@H]3CCC[C@@H](N4CCn5ccnc5C4)C3)[nH]c12 [compound 853]	
3 µM	Cc1ccc(F)c2cc(C(=O)NC3CCCC(N4CCn5c(n[nH]c5=O)C4)C3)[nH]c12 (stereo not drawn) [compound 1106]	
> 200 µM	Cc1cccc2cc(C(=O)NCc3ccccc3Cl)[nH]c12 [compound 1153]	
17.2 µM	Cc1cccc2cc(C(=O)NC(C)c3ccc(-n4cncn4)cc3)[nH]c12 (stereo not drawn) [compound 1155]	
